The values below come from US11840686B2, “Modulation of prekallikrein (PKK) expression” (Ionis Pharmaceuticals, Inc., priority 2013, dated 2023).

Data set [1] relates to human PKK mRNA. Nature of the data set: Antisense inhibition of human PKK mRNA in HepaRG cells, 3,000 nM (Example 1). The settings on record: Table 4; HepaRG cells, electroporation with 3,000 nM antisense oligonucleotide, approx. 24 hours; PKK mRNA by RT-PCR (RTS3454), relative to untreated control cells. Type of data set: cell-based. A digest of the protocol: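 HepaRG cells, 20,000 per well, were electroporated with 3,000 nM 5-10-5 MOE gapmer (phosphorothioate, 5-methylcytosine). After about 24 h, PKK mRNA was measured by qRT-PCR with primer probe set RTS3454 and normalised to RIBOGREEN total RNA. Values are percent inhibition versus untreated cells.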

The test system of data set [2] is human PKK mRNA. Nature of the data set: Dose-dependent antisense inhibition of human PKK in HepaRG cells, 0.12-10.00 uM (Example 4). Type of data set: cell-based. The conditions noted are these: electroporation, ~16 h; for percent inhibition of PKK at 0.12 μM: Table 33, 0.12 μM; for percent inhibition of PKK at 0.37 μM: Table 33, 0.37 μM; for percent inhibition of PKK at 1.11 μM: Table 33, 1.11 μM; for percent inhibition of PKK at 3.33 μM: Table 33, 3.33 μM; for percent inhibition of PKK at 10.00 μM: Table 33, 10.00 μM; for IC50: Table 33, PKK mRNA. Here is the method: Cells were plated at a density of 20,000 cells per well and transfected using electroporation with 0.12 μM, 0.37 μM, 1.11 μM, 3.33 μM, and 10.00 μM concentrations of antisense oligonucleotide. After a treatment period of approximately 16 hours, RNA was isolated from the cells and PKK mRNA levels were measured by quantitative real-time PCR. Human PKK primer probe set RTS3454 was used to measure mRNA levels. PKK mRNA levels were adjusted according to total RNA content, as measured by RIBOGREEN®. The antisense oligonucleotides were tested in a series of experiments that had similar culture conditions. Results are presented as percent inhibition of PKK, relative to untreated control cells.
The half maximal inhibitory concentration (IC50) of each oligonucleotide is also presented.

Strand notation (5' to 3'): a small letter for the sugar, then the base; units joined by * are phosphorothioate-linked, units joined directly phosphodiester-linked; [ ] holds rarer units or linkages, { } end groups; capitals alone tell only the bases. e = 2'-O-(2-methoxyethyl) (MOE); [5mC] = 5-methylcytosine; d = 2'-deoxy (DNA)

One may read the % inhibition as the percentage by which the read-out fell short of the control. Read a low % inhibition as little suppression. A word on the IC50: it is the midpoint of a concentration-inhibition curve. The low end stands for greater potency, the high end for weaker potency. For the substance “531235 (eT*e[5mC]*eA*e[5mC]*eT*dG*dT*dA*d[5mC]*dT*dA*dG*dT*dT*dT*e[5mC]*e[5mC]*eT*eA*eT; antisense) [compound 531235]”, the “% inhibition” value in data set [1] is given as 86%. Besides, in data set [2], the “percent inhibition of PKK at 0.12 μM” value is on record as 27%, the “percent inhibition of PKK at 0.37 μM” value is given as 55%, the “percent inhibition of PKK at 1.11 μM” value was 62% and the “percent inhibition of PKK at 3.33 μM” value was determined as 84%. In data set [2], the “percent inhibition of PKK at 10.00 μM” value is reported as 95% and the IC50 stood at 400 nM.

With “531236 (eA*eT*e[5mC]*eA*e[5mC]*dT*dG*dT*dA*d[5mC]*dT*dA*dG*dT*dT*eT*e[5mC]*e[5mC]*eT*eA; antisense) [compound 531236]”, the “% inhibition” value in data set [1] came out at 87%. In addition, in data set [2], the “percent inhibition of PKK at 0.12 μM” value is recorded as 4%, the “percent inhibition of PKK at 0.37 μM” value was 28%, the “percent inhibition of PKK at 1.11 μM” value amounted to 59% and the “percent inhibition of PKK at 3.33 μM” value came to 85%. Also, in data set [2], the “percent inhibition of PKK at 10.00 μM” value is recorded as 93% and 800 nM corresponded to half-maximal inhibition (IC50).
